Data set [1] in a line: Inhibition of Influenza A virus (A/Puerto Rico/8/1934(H1N1)) neuraminidase using 4-MU-NANA as substrate preincubated for 10 mins followed by substrate addition measured after 1 hr by fluorescence assay.
Data set [2] can be described thus: Inhibition of Influenza A virus (A/Hong Kong/498/97(H3N2)) neuraminidase using 4-MU-NANA as substrate preincubated for 10 mins followed by substrate addition measured after 1 hr by fluorescence assay.
Data set [3] can be described thus: Cytotoxicity against MDCK cells after 72 hrs by Alamar-Blue assay. Conditions: dog. Type of data set: cell-based, Canis lupus familiaris. For orientation: Resazurin is reduced to fluorescent resorufin, in cell work by metabolically active cells.

The source of these data is ChEMBL document CHEMBL4024722, “Discovery of acylguanidine oseltamivir carboxylate derivatives as potent neuraminidase inhibitors” (Bioorg Med Chem, 2017).

Where only a bound is given, the exact number is not on record here.

The IC50 is the midpoint of a concentration-inhibition curve. Low readings indicate higher potency, high ones lower potency. For orientation: CC50 means the concentration that lowers cell viability or growth by half.

`CCC(CC)O[C@@H]1C=C(C(=O)O)C[C@H](NC(=N)NC(=O)Cc2ccc(C)cc2)[C@H]1NC(C)=O`: the half-inhibitory concentration (IC50) in data set [1] was 29.4 nM; in data set [2], 9.5 nM.

As to `CCC(CC)O[C@@H]1C=C(C(=O)O)C[C@H](NC(=N)NC(=O)c2cccc(C)c2)[C@H]1NC(C)=O`, the 50% inhibitory concentration (IC50) came out at 11.5 nM in data set [1] and 19.5 nM in data set [2].

With `CCC(CC)O[C@@H]1C=C(C(=O)O)C[C@H](NC(=N)NC(=O)Cc2ccc(Br)cc2)[C@H]1NC(C)=O`, the IC50 in data set [1] is 14.5 nM; in data set [2] it was 8 nM. In data set [3], the cytotoxic concentration (CC50) at 72 h was over 1000 nM.

Consider `CCCCC(=O)NC(=N)N[C@H]1CC(C(=O)O)=C[C@@H](OC(CC)CC)[C@@H]1NC(C)=O`, for which the IC50 in data set [1] amounted to 37 nM; in data set [2], 6 nM.

For `CCC(CC)O[C@@H]1C=C(C(=O)O)C[C@H](NC(=N)NC(=O)c2ccncc2)[C@H]1NC(C)=O`, the results for the IC50 in data set [1] and in data set [2] were 15.2 nM and 16.1 nM, respectively.

As to `CCC(CC)O[C@@H]1C=C(C(=O)O)C[C@H](NC(=N)NC(=O)c2cccc(OC)c2)[C@H]1NC(C)=O`, the IC50 in data set [1] is 175 nM; in data set [2] it was 533 nM.

`CCC(CC)O[C@@H]1C=C(C(=O)O)C[C@H](NC(=N)NC(=O)c2ccccc2C)[C@H]1NC(C)=O`: the 50% inhibitory concentration (IC50) in data set [1] and in data set [2] was over 1000 nM throughout.

Consider `CCC(CC)O[C@@H]1C=C(C(=O)O)C[C@H](NC(=N)NC(=O)c2ccc([N+](=O)[O-])cc2)[C@H]1NC(C)=O`, for which the IC50 was found to be 20.1 nM in data set [1] and 14.2 nM in data set [2]. The 50% cytotoxic concentration (CC50) at 72 h in data set [3] is over 1000 nM.

For the molecule `CCC(CC)O[C@@H]1C=C(C(=O)O)C[C@H](NC(=N)NC(=O)c2cc(C)cc(C)c2)[C@H]1NC(C)=O`, the figures for the IC50 in data set [1] and in data set [2] were 155 nM and 159 nM, respectively.

Take `CCC(CC)O[C@@H]1C=C(C(=O)O)C[C@H](NC(=N)NC(=O)Cc2ccc3ccccc3c2)[C@H]1NC(C)=O`: the IC50 in data set [1] came to 21.1 nM; in data set [2], 7.2 nM. Also, the 50% cytotoxic concentration (CC50) at 72 h in data set [3] was over 1000 nM.

As for `CCC(CC)O[C@@H]1C=C(C(=O)O)C[C@H](NC(=N)NC(=O)CCc2ccccc2)[C@H]1NC(C)=O`, the results for the IC50 in data set [1] and in data set [2] were 30.1 nM and 9.4 nM, respectively.

Turning to `CCC(CC)O[C@@H]1C=C(C(=O)O)C[C@H](NC(=N)NC(=O)c2ccc(OC)cc2)[C@H]1NC(C)=O`, the concentration for half-maximal inhibition (IC50) in data set [1] was 68.6 nM; in data set [2], 215 nM.

On to `CCC(CC)O[C@@H]1C=C(C(=O)O)C[C@H](NC(=N)NC(=O)c2ccccc2O)[C@H]1NC(C)=O`, for which the IC50 in data set [1] was 49.8 nM; in data set [2] it was 185 nM.

As for `CCC(CC)O[C@@H]1C=C(C(=O)O)C[C@H](NC(=N)NC(=O)C(C)C)[C@H]1NC(C)=O`, the IC50 in data set [1] is 38.2 nM; in data set [2], 13.7 nM.

On to `CCC(CC)O[C@@H]1C=C(C(=O)O)C[C@H](NC(=N)NC(=O)CCc2cccnc2)[C@H]1NC(C)=O`, for which the figures for the IC50 in data set [1] and in data set [2] were 10.2 nM and 14.6 nM, respectively.

Regarding `CCC(=O)NC(=N)N[C@H]1CC(C(=O)O)=C[C@@H](OC(CC)CC)[C@@H]1NC(C)=O`, the results for the IC50 in data set [1] and in data set [2] were 39.1 nM and 11.4 nM, respectively. The molecule further displayed a CC50 at 72 h in data set [3] of over 1000 nM.

Turning to `CCC(CC)O[C@@H]1C=C(C(=O)O)C[C@H](NC(=N)NC(=O)c2cccc(C(F)(F)F)c2)[C@H]1NC(C)=O`, the results for the IC50 in data set [1] and in data set [2] were 216 nM and 76.1 nM, respectively.

As to `CCC(CC)O[C@@H]1C=C(C(=O)O)C[C@H](NC(=N)NC(=O)c2ccccc2)[C@H]1NC(C)=O`, the half-inhibitory concentration (IC50) turned out to be 574 nM in data set [1] and 334 nM in data set [2].

With `CCC(CC)O[C@@H]1C=C(C(=O)O)C[C@H](NC(=N)NC(=O)Cc2ccccc2C)[C@H]1NC(C)=O`, the IC50 in data set [1] was 86.5 nM; in data set [2], 22.8 nM.

On to `CCC(CC)O[C@@H]1C=C(C(=O)O)C[C@H](NC(=N)NC(=O)CCc2ccc(OC)c(OC)c2)[C@H]1NC(C)=O`, for which the IC50 in data set [1] was 1.43 nM; in data set [2], 3.64 nM. The same molecule gave a CC50 at 72 h in data set [3] of over 1000 nM.

Consider `C=CCCC(=O)NC(=N)N[C@H]1CC(C(=O)O)=C[C@@H](OC(CC)CC)[C@@H]1NC(C)=O`, for which the figures for the IC50 in data set [1] and in data set [2] were 8.1 nM and 5.4 nM, respectively. This molecule displayed a 50% cytotoxic concentration (CC50) at 72 h in data set [3] of over 1000 nM.

With `CCC(CC)O[C@@H]1C=C(C(=O)O)C[C@H](NC(=N)NC(=O)c2ccccc2OC)[C@H]1NC(C)=O`, the results for the IC50 in data set [1] and in data set [2] were 53.5 nM and 125 nM, respectively.

As for `CCC(CC)O[C@@H]1C=C(C(=O)O)C[C@H](NC(=N)NC(=O)c2ccccc2C(F)(F)F)[C@H]1NC(C)=O`, the IC50 is over 1000 nM in data set [1] and 911 nM in data set [2].

Take `CCC(CC)O[C@@H]1C=C(C(=O)O)C[C@H](NC(=N)NC(=O)c2ccc(C)cc2)[C@H]1NC(C)=O`: the 50% inhibitory concentration (IC50) in data set [1] and in data set [2] was over 1000 nM throughout.

With `CCC(CC)O[C@@H]1C=C(C(=O)O)C[C@H](NC(=N)NC(=O)CC(C)C)[C@H]1NC(C)=O`, the half-maximal inhibitory concentration (IC50) in data set [1] turned out to be 88.3 nM; in data set [2], 18.4 nM.

On to `CCC(CC)O[C@@H]1C=C(C(=O)O)C[C@H](NC(=N)NC(=O)c2ccccc2Br)[C@H]1NC(C)=O`, for which the IC50 in data set [1] and in data set [2] was over 1000 nM in each case.

For the molecule `CCCC(=O)NC(=N)N[C@H]1CC(C(=O)O)=C[C@@H](OC(CC)CC)[C@@H]1NC(C)=O`, the IC50 was determined as 34.8 nM in data set [1] and 11.2 nM in data set [2].

For the molecule `CCC(CC)O[C@@H]1C=C(C(=O)O)C[C@H](NC(=N)NC(=O)CCCc2ccccc2)[C@H]1NC(C)=O`, the values for the IC50 in data set [1] and in data set [2] were 64.9 nM and 21.4 nM, respectively.
